Measured values reported in patent US20050112573A1, “Method of detecting toxic substance” (priority 2001, published 2005).

Test system: yeast genes (level of expressed mRNA)
Experiment: DNA chip analysis of expressed mRNA of yeast genes after 2 h culture with a toxic chemical substance
Format: cell-based, Saccharomyces cerevisiae S288C
Protocol: Yeast (Saccharomyces cerevtisiae S288C (α SUC2mal mel gap2 CUP1)) were cultured at 25° C. on YPD medium (yeast extract 1%, polypepton 2%, glucose 2%). One of toxic chemical substances was added to the cell at logarithmic growth phase, and the cell was further cultured for two hours. Cell was cultured without any chemical substance in the same condition, and was used as control. Concentrations of the chemical substances were defined to inhibit the growth of the yeast but not lead to death.
After the completion of cultivation, the culture was centrifuged to collect the cells. To the cells, sodium acetate buffer (50 mM sodium acetate, 10 mM EDTA, 1% SDS) was added, and the mixture was shaken at 65° C. for five minutes, followed by returning to room temperature, and obtaining the supernatant, which procedure was repeated two times. To the supernatant, ½ amount of a solution of phenol/chloroform was added, and the mixture was centrifuged to give a supernatant, which was added with an equal amount of chloroform, and the mixture was centrifuged to give a supernatant. To the supernatant, an equal amount of isopropanol containing 0.3 M sodium acetate was added, and the mixture was allowed to stand at room temperature for 30 minutes, after which the mixture was centrifuged to give a sediment of the whole RNAs. Seventy % ethanol was added to the sediment, and the mixture was again centrifuged to give a sediment, which was then dried and dissolved in water. mRNA was isolated from the whole RNAs as followings. In view of the fact that a poly A chain is attached to the 3′ terminus of mRNA, a polynucleotide having a poly T structure which was immobilized on the surface of latex beads was used to trap the mRNA, and then the mRNA was washed and eluted with spine column (Oligotex-dT30<Super>mRNA Purification Kit, Takara). Reverse transcription of the mRNA was conducted with a reverse transcriptase (Super Script II Reverse Transcriptase; catalogue No. 18064-014, GibcoBRL) using fluorescence-labeled nucleotides to give cDNAs that were introduced with Cy3-dUTP or Cy5-dUTP during the reverse transcription.
The labeled cDNAs were dissolved in TE buffer (10 mM Tris-HCl/1 mM EDTA, pH8.0), and the solution was dropped on the DNA chip containing the whole genes of yeast (DNA Chip Research Inc. Japan) so that the cDNAs were hybridized on the DNA chip at 65° C. for over 12 hours. The fluoresces intensity of the DNA chip was read with a scanner, and the ratio relative to the fluorescence intensity resulting from the absence of chemical substance was estimated as the following, which is shown in Tables 1 to 9: [formula]
In the Tables, “Intensity” indicated in the rightmost column is a value of the level of expressed mRNA of each gene in control cells as divided by the average level of the expressions of the whole genes.

HgCl2 [(3)]
The level of expressed mRNA in the presence of chemical substance/ (yeast gene YAL053W, ratio to control without chemical): 1.3 | The level of expressed mRNA in the presence of chemical substance/The level of expressed mRNA in the absence of chemical substance (yeast gene YAR010C): 1.2 | The level of expressed mRNA in the presence of chemical substance/The level of expressed mRNA in the absence of chemical substance (yeast gene YBL005W-A): 0.5 | The level of expressed mRNA in the presence of chemical substance/The level of expressed mRNA in the absence of chemical substance (yeast gene YBL041W): 0.9 | The level of expressed mRNA in the presence of chemical substance/The level of expressed mRNA in the absence of chemical substance (yeast gene YBL043W): 1.1 | The level of expressed mRNA in the presence of chemical substance/ (yeast gene YBL048W, ratio to control without chemical substance, 2 h culture): 2.3 | The level of expressed mRNA in the presence of chemical substance/The level of expressed mRNA in the absence of chemical substance (yeast gene YBL078C): 1.3 | The level of expressed mRNA in the presence of chemical substance/ (yeast gene YBL107C, ratio to control without chemical substance, 2 h culture): 0.4 | The level of expressed mRNA in the presence of chemical substance/in the absence of chemical substance (yeast gene YBR036C): 1.8 | The level of expressed mRNA in the presence of chemical substance/The level of expressed mRNA in the absence of chemical substance (yeast gene YBR214W): 5.7 | The level of expressed mRNA in the presence of chemical substance/in the absence of chemical substance (yeast gene YBR298C): 1.6 | The level of expressed mRNA in the presence of chemical substance/The level of expressed mRNA in the absence of chemical substance (yeast gene YCL020W): 0.5 | The level of expressed mRNA in the presence of chemical substance/The level of expressed mRNA in the absence of chemical substance (yeast gene YCL027W): 1.0 | The level of expressed mRNA in the presence of chemical substance/The level of expressed mRNA in the absence of chemical substance (yeast gene YCR004C): 12.0 | The level of expressed mRNA in the presence of chemical substance/The level of expressed mRNA in the absence of chemical substance (yeast gene YCR071C): 0.9 | The level of expressed mRNA in the presence of chemical substance/The level of expressed mRNA in the absence of chemical substance (yeast gene YCR088W): 1.2 | The level of expressed mRNA in the presence of chemical substance/The level of expressed mRNA in the absence of chemical substance (yeast gene YDL008W): 1.0 | The level of expressed mRNA in the presence of chemical substance/ (yeast gene YDL072C, ratio to control without chemical): 3.5 | The level of expressed mRNA in the presence of chemical substance/in the absence of chemical substance (yeast gene YDL078C): 1.2 | The level of expressed mRNA in the presence of chemical substance/ (yeast gene YDL204W, ratio to control without chemical): 4.8 | The level of expressed mRNA in the presence of chemical substance/in the absence of chemical substance (yeast gene YDL215C): 1.0 | The level of expressed mRNA in the presence of chemical substance/ (yeast gene YDL222C, ratio to control without chemical): 1.5 | The level of expressed mRNA in the presence of chemical substance/The level of expressed mRNA in the absence of chemical substance (yeast gene YDL238C): 1.1 | The level of expressed mRNA in the presence of chemical substance/The level of expressed mRNA in the absence of chemical substance (yeast gene YDR055W): 2.2 | The level of expressed mRNA in the presence of chemical substance/The level of expressed mRNA in the absence of chemical substance (yeast gene YDR084C): 1.5 | The level of expressed mRNA in the presence of chemical substance/The level of expressed mRNA in the absence of chemical substance (yeast gene YDR085C): 1.6 | The level of expressed mRNA in the presence of chemical substance/The level of expressed mRNA in the absence of chemical substance (yeast gene YDR104C): 1.2 | The level of expressed mRNA in the presence of chemical substance/The level of expressed mRNA in the absence of chemical substance (yeast gene YDR115W): 0.6 | The level of expressed mRNA in the presence of chemical substance/The level of expressed mRNA in the absence of chemical substance (yeast gene YDR259C): 0.4 | The level of expressed mRNA in the presence of chemical substance/in the absence of chemical substance (yeast gene YDR297W): 0.8 | The level of expressed mRNA in the presence of chemical substance/The level of expressed mRNA in the absence of chemical substance (yeast gene YDR315C): 1.0 | The level of expressed mRNA in the presence of chemical substance/ (yeast gene YDR330W, ratio to control without chemical substance, 2 h culture): 1.2 | The level of expressed mRNA in the presence of chemical substance/The level of expressed mRNA in the absence of chemical substance (yeast gene YDR358W): 0.7 | The level of expressed mRNA in the presence of chemical substance/in the absence of chemical substance (yeast gene YDR387C): 1.2 | The level of expressed mRNA in the presence of chemical substance/The level of expressed mRNA in the absence of chemical substance (yeast gene YDR388W): 1.2 | The level of expressed mRNA in the presence of chemical substance/ (yeast gene YDR411C, ratio to control without chemical substance, 2 h culture): 1.8 | The level of expressed mRNA in the presence of chemical substance/The level of expressed mRNA in the absence of chemical substance (yeast gene YDR432W): 1.0 | The level of expressed mRNA in the presence of chemical substance/The level of expressed mRNA in the absence of chemical substance (yeast gene YDR481C): 1.3 | The level of expressed mRNA in the presence of chemical substance/The level of expressed mRNA in the absence of chemical substance (yeast gene YDR510W): 1.5 | The level of expressed mRNA in the presence of chemical substance/ (yeast gene YDR511W, ratio to control without chemical substance, 2 h culture): 0.9 | The level of expressed mRNA in the presence of chemical substance/ (yeast gene YDR545W, ratio to control without chemical substance, 2 h culture): 0.6 | The level of expressed mRNA in the presence of chemical substance/ (yeast gene YEL001C, ratio to control without chemical): 1.4 | The level of expressed mRNA in the presence of chemical substance/The level of expressed mRNA in the absence of chemical substance (yeast gene YEL042W): 1.7 | The level of expressed mRNA in the presence of chemical substance/The level of expressed mRNA in the absence of chemical substance (yeast gene YEL066W): 1.5 | The level of expressed mRNA in the presence of chemical substance/ (yeast gene YER004W, ratio to control without chemical substance, 2 h culture): 1.9 | The level of expressed mRNA in the presence of chemical substance/ (yeast gene YER035W, ratio to control without chemical substance, 2 h culture): 1.6 | The level of expressed mRNA in the presence of chemical substance/The level of expressed mRNA in the absence of chemical substance (yeast gene YER039C): 1.0 | The level of expressed mRNA in the presence of chemical substance/ (yeast gene YER079W, ratio to control without chemical substance, 2 h culture): 1.9 | The level of expressed mRNA in the presence of chemical substance/ (yeast gene YER106W, ratio to control without chemical): 1.3 | The level of expressed mRNA in the presence of chemical substance/The level of expressed mRNA in the absence of chemical substance (yeast gene YER107C): 1.0 | The level of expressed mRNA in the presence of chemical substance/The level of expressed mRNA in the absence of chemical substance (yeast gene YER130C): 0.5 | The level of expressed mRNA in the presence of chemical substance/ (yeast gene YER158C, ratio to control without chemical substance, 2 h culture): 0.9 | The level of expressed mRNA in the presence of chemical substance/ (yeast gene YER163C, ratio to control without chemical substance, 2 h culture): 1.2 | The level of expressed mRNA in the presence of chemical substance/ (yeast gene YER175C, ratio to control without chemical substance, 2 h culture): 1.3 | The level of expressed mRNA in the presence of chemical substance/ (yeast gene YFL006W, ratio to control without chemical substance, 2 h culture): 1.6
